What was measured:
D(3) dopamine receptor [1] = molecular target: D(3) dopamine receptor (Homo sapiens, UniProt P35462); test: Displacement of [3H]N-methylspiperone from human dopamine D3 receptor expressed in HEK293 cells after 1 hr by liquid scintillation counting analysis
D(2) dopamine receptor = D(2) dopamine receptor (Homo sapiens, UniProt P14416); test: Displacement of [3H]N-methylspiperone from human dopamine D2 receptor expressed in HEK293 cells after 1 hr by liquid scintillation counting analysis
D(3) dopamine receptor [2] = molecular target: D(3) dopamine receptor (Rattus norvegicus, UniProt P19020); test: Displacement of [3H]R-(+)-7-OHDPAT from dopamine D3 receptor in Sprague-Dawley rat ventral striatum after 90 mins
Chain of D(3) dopamine receptor (Rattus norvegicus, UniProt P19020) (P19020 whole entry): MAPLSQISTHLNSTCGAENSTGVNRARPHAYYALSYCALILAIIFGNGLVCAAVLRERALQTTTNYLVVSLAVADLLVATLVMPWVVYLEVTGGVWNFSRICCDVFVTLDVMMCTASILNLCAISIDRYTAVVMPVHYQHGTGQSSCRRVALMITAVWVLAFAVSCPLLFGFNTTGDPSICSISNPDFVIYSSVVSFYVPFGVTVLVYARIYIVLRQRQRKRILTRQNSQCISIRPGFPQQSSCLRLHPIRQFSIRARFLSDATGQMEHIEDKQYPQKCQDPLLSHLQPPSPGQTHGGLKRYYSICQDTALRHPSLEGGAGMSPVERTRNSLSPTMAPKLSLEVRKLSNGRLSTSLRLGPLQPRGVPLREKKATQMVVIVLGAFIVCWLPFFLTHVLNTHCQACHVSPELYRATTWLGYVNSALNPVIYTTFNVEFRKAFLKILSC

Chain of D(2) dopamine receptor (P14416 whole entry): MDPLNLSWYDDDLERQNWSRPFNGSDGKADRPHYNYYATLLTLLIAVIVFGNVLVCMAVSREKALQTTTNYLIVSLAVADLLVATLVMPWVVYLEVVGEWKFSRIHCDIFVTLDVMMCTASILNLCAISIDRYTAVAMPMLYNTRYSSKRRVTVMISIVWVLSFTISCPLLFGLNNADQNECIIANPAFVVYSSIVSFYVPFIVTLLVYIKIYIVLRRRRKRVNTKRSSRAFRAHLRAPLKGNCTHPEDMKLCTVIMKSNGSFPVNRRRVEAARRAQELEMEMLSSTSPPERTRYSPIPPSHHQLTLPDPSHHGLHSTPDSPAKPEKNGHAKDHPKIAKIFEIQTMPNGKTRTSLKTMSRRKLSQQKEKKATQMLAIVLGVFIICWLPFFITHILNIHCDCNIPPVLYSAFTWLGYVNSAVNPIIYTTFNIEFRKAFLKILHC
Chain of D(3) dopamine receptor (Homo sapiens, UniProt P35462) (P35462 as listed by the source): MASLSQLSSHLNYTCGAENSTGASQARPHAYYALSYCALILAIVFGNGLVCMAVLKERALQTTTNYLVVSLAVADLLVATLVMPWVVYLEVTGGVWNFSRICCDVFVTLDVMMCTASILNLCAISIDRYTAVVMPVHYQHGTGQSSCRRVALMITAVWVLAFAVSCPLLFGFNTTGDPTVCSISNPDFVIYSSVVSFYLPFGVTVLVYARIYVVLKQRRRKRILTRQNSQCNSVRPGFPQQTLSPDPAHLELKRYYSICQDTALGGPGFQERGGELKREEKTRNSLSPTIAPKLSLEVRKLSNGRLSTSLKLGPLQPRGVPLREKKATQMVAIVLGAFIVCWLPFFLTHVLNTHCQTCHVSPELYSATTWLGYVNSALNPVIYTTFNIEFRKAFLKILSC

Ki (D(3) dopamine receptor [1]) [nM]	Ki (D(2) dopamine receptor) [nM]	Ki (D(3) dopamine receptor [2]) [nM]	SMILES
38	1220	28	CCCN(CC[C@]1(O)C[C@@H](NC(=O)c2ccc3ccccc3c2)C1)[C@H]1C[C@@H]1c1cccc(Cl)c1
22	923	19	CCCN(CC[C@]1(O)C[C@@H](NC(=O)c2ccc3ccccc3c2)C1)[C@H]1C[C@@H]1c1ccccc1Cl

SMILES	Ki (D(3) dopamine receptor [1]) [nM]	Ki (D(2) dopamine receptor) [nM]	Ki (D(3) dopamine receptor [2]) [nM]
CCCN(CC[C@]1(O)C[C@@H](NC(=O)c2ccc3ccccc3c2)C1)C1CC1c1ccc(Cl)cc1 (some centres undefined)	2.6	667	4.6
